# Data as given in patent publication US6583265B1, “Cyclosporins” (C-Chem AG, priority 1998, dated 2003).
# Peptide text beside a SMILES is read from it.
# Key:
# cyclophilin = cyclophilin (Homo sapiens, UniProt P62937); assay: Test for cyclophilin binding (Fliri); conditions: ratio to cyclosporin A
# Description: To measure the affinity and inhibition of test compounds for cyclophilin, the test described by H. Fliri in “Antibiotics and Antiviral compounds”, 1993, Verlag Chemie, K.Krohn, H. A. Kirst, and H. Maag, eds., p 229-240 was used.
# [1] = tested on: T. gondii tachyzoites, strain RH; assay type: cell-based, Toxoplasma gondii; conditions: 72 h
# Description: Using microliter plates, T. gondii tachyzoites, strain RH were co-incubated with fibroblasts (MCR5, Bio-Merieux) for 72 hrs in the presence and absence of test compounds T. gondii was quantified using an ELISA. The activities of the test compounds are as follows: […]
# [2] = Antiinflammatory activity, adjuvent arthritis test (Pearson); assay type: in vivo; conditions: oral, solutions in olive oil and tween 80
# Description: The antiinflammatory activity of test compounds was determined by the adjuvent arthritis test described by Pearson, “Arthr. Rheum”, 1959, Vol. 2., 440. Test compounds were administered orally as solutions in olive oil and tween 80.
# [3] = target: recombinant human cyclophilin 18 (Homo sapiens, UniProt P62937); assay: Test for inhibition of cyclophilin (chymotrypsin-coupled hydrolysis of Succ-Ala-Phe-Pro-Phe-4-nitroanilide); assay type: biochemical; conditions: recombinant human cyclophilin 18, 10 °C, HEPES buffer, 5 minutes preincubation, substrate 50 μM
# recombinant human cyclophilin 18, sequence (P62937 whole entry): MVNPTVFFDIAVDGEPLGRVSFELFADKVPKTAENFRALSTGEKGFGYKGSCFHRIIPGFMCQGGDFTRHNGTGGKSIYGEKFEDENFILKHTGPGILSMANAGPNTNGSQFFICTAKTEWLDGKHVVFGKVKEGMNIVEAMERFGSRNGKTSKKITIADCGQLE
# Description: The test described by G. Fischer et al., Biomed. Biochim. Acta, Vol. 43, 1101-1111 (1984) was used. Specifically, 5 μL of a 1 μM solution of recombinant human cyclophilin 18 was dissolved, at 10,0±0.3° C. in 1250 μL HEPES buffer; α-chymotrypsin was added to give a final concentration of 30 μM. […] After 5 minutes preincubation, Succ-Ala-Phe-Pro-Phe-4-nitroanilide (SEQ ID No. 1) was added to give a final concentration of 50 μM. The hydrolysis of the substrate was measured spectrophotometrically at […].
# cyclophilin, sequence (P62937 whole entry): as above
Compound,"Relative IC50, i.e. IC50 (cyclosporin A)/IC50 (test compound) (cyclophilin)",Activity against T. gondii (IC50) [1] [µg/mL],"ED50, dose effective in reducing the joint swelling by 50% [2] [mg/kg]",IC50 [3] [nM]
"C/C=C/C[C@@H](C)[C@@H](O)[C@H]1C(=O)N[C@@H](CC)C(=O)N(C)C(OCC)C(=O)N(C)[C@@H](CC(C)C)C(=O)N[C@@H](C(C)C)C(=O)N(C)[C@@H](CC(C)C)C(=O)N[C@@H](C)C(=O)N[C@H](C)C(=O)N(C)[C@@H](CC(C)C)C(=O)N(C)[C@@H](CC(C)C)C(=O)N(C)[C@@H](C(C)C)C(=O)N1C (some centres unmarked) [Example 15, 3-Ethoxycyclosporin] (HELM PEPTIDE1{[C/C=C/C[C@@H](C)[C@@H](O)[C@@H](C(=O)[*:2])N(C)[*:1]].[Abu].[CCOC(C(=O)[*:2])N(C)[*:1]].[meL].V.[meL].A.[dA].[meL].[meL].[meV]}$PEPTIDE1,PEPTIDE1,1:R1-11:R2$$$V2.0)",2,0.6,15,
"C/C=C/C[C@@H](C)[C@@H](O)[C@H]1C(=O)N[C@@H](CC)C(=O)N(C)[C@H](OC(C)(C)C)C(=O)N(C)[C@@H](CC(C)C)C(=O)N[C@@H](C(C)C)C(=O)N(C)[C@@H](CC(C)C)C(=O)N[C@@H](C)C(=O)N[C@H](C)C(=O)N(C)[C@@H](CC(C)C)C(=O)N(C)[C@@H](CC(C)C)C(=O)N(C)[C@@H](C(C)C)C(=O)N1C [Example 17, [D-Sar-(tert.-butoxy)^3]-cyclosporin] (HELM PEPTIDE1{[C/C=C/C[C@@H](C)[C@@H](O)[C@@H](C(=O)[*:2])N(C)[*:1]].[Abu].[CN([C@H](OC(C)(C)C)C(=O)[*:2])[*:1]].[meL].V.[meL].A.[dA].[meL].[meL].[meV]}$PEPTIDE1,PEPTIDE1,1:R1-11:R2$$$V2.0)",,,,18.9 ± 1.03
"C=CCO[C@@H]1C(=O)N(C)[C@@H](CC(C)C)C(=O)N[C@@H](C(C)C)C(=O)N(C)[C@@H](CC(C)C)C(=O)N[C@@H](C)C(=O)N[C@H](C)C(=O)N(C)[C@@H](CC(C)C)C(=O)N(C)[C@@H](CC(C)C)C(=O)N(C)[C@@H](C(C)C)C(=O)N(C)[C@@H]([C@H](O)[C@H](C)C/C=C/C)C(=O)N[C@@H](CC)C(=O)N1C [Example 18, [D-Sar-(allyloxy)^3]-cyclosporin] (HELM PEPTIDE1{[C/C=C/C[C@@H](C)[C@@H](O)[C@@H](C(=O)[*:2])N(C)[*:1]].[Abu].[C=CCO[C@H](C(=O)[*:2])N(C)[*:1]].[meL].V.[meL].A.[dA].[meL].[meL].[meV]}$PEPTIDE1,PEPTIDE1,1:R1-11:R2$$$V2.0)",,,,10.2 ± 2.21
